Source: BigSolDB 2.1

CC(C)(Oc1ccc(CCNC(=O)c2ccc(Cl)cc2)cc1)C(=O)O
solubility (mole fraction)
Settings	283.15 K	288.15 K	293.15 K	298.15 K	303.15 K	308.15 K	313.15 K	318.15 K	323.15 K
in ethanol	0.00223	0.00271	0.00332	0.00402	0.00482	0.00571	0.00689	0.00815	0.00977
in isopropanol	0.00152	0.00189	0.00237	0.00307	0.00384	0.00476	0.00563	0.00689	0.00832
in methanol	0.0019	0.00228	0.00283	0.00343	0.0043	0.00526	0.00648	0.00791	0.00948
in n-propanol	0.00246	0.00297	0.00361	0.00437	0.00524	0.00631	0.00743	0.0088	0.0101
in water	1.23e-06	1.58e-06	2.01e-06	2.56e-06	3.29e-06	4.13e-06	5.13e-06	6.3e-06	7.83e-06
